Bounds are passed on as bounds.

A word on the Ki: it is a measure of affinity in units of concentration, obtained from inhibition or displacement. Read a high Ki as lower affinity.

The target in assay [1] is Beta-2 adrenergic receptor (Homo sapiens, UniProt P07550). Briefly: PDSP Secondary Binding target: ADRB2 - Compounds are tested at 10 uM concentration, plate are incubated at room temperature in the dark for 90 minutes. Reaction are stopped by vacuum filtration onto 0.3% polyethyleneimine soaked filter mats using Filtermate harvester. Scintillation cocktail is then melted onto microwave-dried filters on a hot plate and the radio activity is counted in Microbia counter.
Sequence of Beta-2 adrenergic receptor (P07550 whole entry): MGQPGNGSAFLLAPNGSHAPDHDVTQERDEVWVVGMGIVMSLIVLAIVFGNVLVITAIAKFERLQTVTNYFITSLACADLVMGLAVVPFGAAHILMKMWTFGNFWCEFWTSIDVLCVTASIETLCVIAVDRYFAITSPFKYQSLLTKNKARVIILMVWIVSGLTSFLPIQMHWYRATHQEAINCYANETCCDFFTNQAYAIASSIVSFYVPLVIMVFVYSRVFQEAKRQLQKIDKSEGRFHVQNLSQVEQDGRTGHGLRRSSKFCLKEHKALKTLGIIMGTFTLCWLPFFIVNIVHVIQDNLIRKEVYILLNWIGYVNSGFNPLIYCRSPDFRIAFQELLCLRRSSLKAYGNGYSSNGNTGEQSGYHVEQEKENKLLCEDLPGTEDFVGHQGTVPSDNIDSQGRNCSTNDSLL

Assay [2] has as its target 5-hydroxytryptamine receptor 5A (Homo sapiens, UniProt P47898). The assay can be described thus: PDSP Secondary Binding target: HTR5A - Compounds are tested at 10 uM concentration, plate are incubated at room temperature in the dark for 90 minutes. Reaction are stopped by vacuum filtration onto 0.3% polyethyleneimine soaked filter mats using Filtermate harvester. Scintillation cocktail is then melted onto microwave-dried filters on a hot plate and the radio activity is counted in Microbia counter.

For assay [3], the target named is 5-hydroxytryptamine receptor 2B (Homo sapiens, UniProt P41595). The assay can be described thus: PDSP Secondary Binding target: HTR2B - Compounds are tested at 10 uM concentration, plate are incubated at room temperature in the dark for 90 minutes. Reaction are stopped by vacuum filtration onto 0.3% polyethyleneimine soaked filter mats using Filtermate harvester. Scintillation cocktail is then melted onto microwave-dried filters on a hot plate and the radio activity is counted in Microbia counter.
Sequence of 5-hydroxytryptamine receptor 2B (P41595 whole entry): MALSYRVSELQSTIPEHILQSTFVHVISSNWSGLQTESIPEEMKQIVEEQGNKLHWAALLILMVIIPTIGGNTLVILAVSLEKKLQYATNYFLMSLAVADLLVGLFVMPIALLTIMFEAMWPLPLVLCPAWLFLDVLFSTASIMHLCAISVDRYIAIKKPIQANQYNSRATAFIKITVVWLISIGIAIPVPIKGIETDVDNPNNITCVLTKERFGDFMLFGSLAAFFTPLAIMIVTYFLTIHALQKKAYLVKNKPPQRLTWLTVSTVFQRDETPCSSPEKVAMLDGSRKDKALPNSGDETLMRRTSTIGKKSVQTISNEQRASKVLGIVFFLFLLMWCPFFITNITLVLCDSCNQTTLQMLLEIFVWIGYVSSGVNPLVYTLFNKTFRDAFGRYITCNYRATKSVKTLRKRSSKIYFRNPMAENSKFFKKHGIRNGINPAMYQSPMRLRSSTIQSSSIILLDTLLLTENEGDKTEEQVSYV

Assay [4] deals with 5-hydroxytryptamine receptor 1D (Homo sapiens, UniProt P28221). Briefly: PDSP Secondary Binding target: HTR1D - Compounds are tested at 10 uM concentration, plate are incubated at room temperature in the dark for 90 minutes. Reaction are stopped by vacuum filtration onto 0.3% polyethyleneimine soaked filter mats using Filtermate harvester. Scintillation cocktail is then melted onto microwave-dried filters on a hot plate and the radio activity is counted in Microbia counter.
Sequence of 5-hydroxytryptamine receptor 1D (P28221 whole entry): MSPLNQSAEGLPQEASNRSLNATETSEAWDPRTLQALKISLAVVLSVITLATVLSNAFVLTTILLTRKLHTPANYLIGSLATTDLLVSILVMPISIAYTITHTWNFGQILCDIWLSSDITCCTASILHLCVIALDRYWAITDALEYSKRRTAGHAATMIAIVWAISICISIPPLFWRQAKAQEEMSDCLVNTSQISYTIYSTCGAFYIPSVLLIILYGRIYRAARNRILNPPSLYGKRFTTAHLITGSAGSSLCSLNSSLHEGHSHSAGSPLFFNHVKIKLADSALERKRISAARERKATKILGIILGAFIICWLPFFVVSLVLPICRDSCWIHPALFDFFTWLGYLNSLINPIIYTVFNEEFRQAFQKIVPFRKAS

In the next assay the target is D(3) dopamine receptor (Homo sapiens, UniProt P35462). The assay can be described thus: PDSP Secondary Binding target: DRD3 - Compounds are tested at 10 uM concentration, plate are incubated at room temperature in the dark for 90 minutes. Reaction are stopped by vacuum filtration onto 0.3% polyethyleneimine soaked filter mats using Filtermate harvester. Scintillation cocktail is then melted onto microwave-dried filters on a hot plate and the radio activity is counted in Microbia counter.
Sequence of D(3) dopamine receptor (P35462 whole entry): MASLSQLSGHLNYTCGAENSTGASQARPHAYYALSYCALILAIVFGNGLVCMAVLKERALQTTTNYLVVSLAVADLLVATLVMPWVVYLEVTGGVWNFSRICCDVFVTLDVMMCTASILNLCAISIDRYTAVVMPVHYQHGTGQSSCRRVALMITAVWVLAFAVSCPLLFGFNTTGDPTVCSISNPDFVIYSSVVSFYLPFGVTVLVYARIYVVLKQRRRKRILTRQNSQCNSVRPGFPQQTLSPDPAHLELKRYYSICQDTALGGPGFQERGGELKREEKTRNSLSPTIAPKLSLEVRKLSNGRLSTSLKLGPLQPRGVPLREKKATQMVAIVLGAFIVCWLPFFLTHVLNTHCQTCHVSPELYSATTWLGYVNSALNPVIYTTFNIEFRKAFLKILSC

Assay [5] has as its target Sigma intracellular receptor 2 (Homo sapiens, UniProt Q5BJF2). Briefly: PDSP Secondary Binding target: TMEM97 - Compounds are tested at 10 uM concentration, plate are incubated at room temperature in the dark for 90 minutes. Reaction are stopped by vacuum filtration onto 0.3% polyethyleneimine soaked filter mats using Filtermate harvester. Scintillation cocktail is then melted onto microwave-dried filters on a hot plate and the radio activity is counted in Microbia counter.

Another assay addresses Translocator protein (Homo sapiens, UniProt P30536). Briefly: PDSP Secondary Binding target: TSPO - Compounds are tested at 10 uM concentration, plate are incubated at room temperature in the dark for 90 minutes. Reaction are stopped by vacuum filtration onto 0.3% polyethyleneimine soaked filter mats using Filtermate harvester. Scintillation cocktail is then melted onto microwave-dried filters on a hot plate and the radio activity is counted in Microbia counter.

In assay [6] the target is Beta-3 adrenergic receptor (Homo sapiens, UniProt P13945). The assay can be described thus: PDSP Secondary Binding target: ADRB3 - Compounds are tested at 10 uM concentration, plate are incubated at room temperature in the dark for 90 minutes. Reaction are stopped by vacuum filtration onto 0.3% polyethyleneimine soaked filter mats using Filtermate harvester. Scintillation cocktail is then melted onto microwave-dried filters on a hot plate and the radio activity is counted in Microbia counter.

Assay [7] concerns the target T1, Alpha-2A adrenergic receptor (Homo sapiens, UniProt P08913).
T1 sequence (P08913 whole entry): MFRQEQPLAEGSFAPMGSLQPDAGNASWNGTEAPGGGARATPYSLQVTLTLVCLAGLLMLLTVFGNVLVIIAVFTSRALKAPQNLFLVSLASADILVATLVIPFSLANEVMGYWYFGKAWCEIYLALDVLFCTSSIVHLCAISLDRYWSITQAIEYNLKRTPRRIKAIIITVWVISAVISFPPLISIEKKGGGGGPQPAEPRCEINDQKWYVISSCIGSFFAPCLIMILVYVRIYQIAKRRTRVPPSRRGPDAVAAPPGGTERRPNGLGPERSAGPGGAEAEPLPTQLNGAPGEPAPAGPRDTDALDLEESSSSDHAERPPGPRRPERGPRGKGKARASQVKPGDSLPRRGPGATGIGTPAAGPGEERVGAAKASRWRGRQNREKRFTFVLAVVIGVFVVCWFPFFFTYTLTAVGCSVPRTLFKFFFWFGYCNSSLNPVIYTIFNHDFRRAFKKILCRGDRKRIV
Briefly: PDSP Secondary Binding target: ADRA2A - Compounds are tested at 10 uM concentration, plate are incubated at room temperature in the dark for 90 minutes. Reaction are stopped by vacuum filtration onto 0.3% polyethyleneimine soaked filter mats using Filtermate harvester. Scintillation cocktail is then melted onto microwave-dried filters on a hot plate and the radio activity is counted in Microbia counter.

For assay [8], the target named is Sodium-dependent noradrenaline transporter (Homo sapiens, UniProt P23975). The assay can be described thus: PDSP Secondary Binding target: SLC6A2 - Compounds are tested at 10 uM concentration, plate are incubated at room temperature in the dark for 90 minutes. Reaction are stopped by vacuum filtration onto 0.3% polyethyleneimine soaked filter mats using Filtermate harvester. Scintillation cocktail is then melted onto microwave-dried filters on a hot plate and the radio activity is counted in Microbia counter.
Sequence of Sodium-dependent noradrenaline transporter (P23975 whole entry): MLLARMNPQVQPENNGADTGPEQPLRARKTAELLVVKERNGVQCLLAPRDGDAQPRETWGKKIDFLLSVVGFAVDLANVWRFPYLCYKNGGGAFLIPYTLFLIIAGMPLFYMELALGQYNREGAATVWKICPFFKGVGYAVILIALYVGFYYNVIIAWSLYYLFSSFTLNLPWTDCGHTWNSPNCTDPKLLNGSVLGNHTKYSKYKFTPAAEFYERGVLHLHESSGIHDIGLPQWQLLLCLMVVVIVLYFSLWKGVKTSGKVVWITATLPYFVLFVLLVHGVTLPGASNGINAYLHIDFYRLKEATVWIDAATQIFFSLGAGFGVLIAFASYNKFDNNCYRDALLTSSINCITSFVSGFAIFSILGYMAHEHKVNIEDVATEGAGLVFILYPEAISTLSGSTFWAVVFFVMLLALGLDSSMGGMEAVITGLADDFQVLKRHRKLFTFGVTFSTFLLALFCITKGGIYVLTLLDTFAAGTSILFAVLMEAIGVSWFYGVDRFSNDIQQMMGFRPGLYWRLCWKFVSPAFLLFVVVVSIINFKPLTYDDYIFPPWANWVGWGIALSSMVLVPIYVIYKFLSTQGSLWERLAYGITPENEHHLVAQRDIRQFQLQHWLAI

Assay [9] deals with 5-hydroxytryptamine receptor 1B (Homo sapiens, UniProt P28222). The assay can be described thus: PDSP Secondary Binding target: HTR1B - Compounds are tested at 10 uM concentration, plate are incubated at room temperature in the dark for 90 minutes. Reaction are stopped by vacuum filtration onto 0.3% polyethyleneimine soaked filter mats using Filtermate harvester. Scintillation cocktail is then melted onto microwave-dried filters on a hot plate and the radio activity is counted in Microbia counter.

In assay [10] the target is 5-hydroxytryptamine receptor 6 (Homo sapiens, UniProt P50406). Briefly: PDSP Secondary Binding target: HTR6 - Compounds are tested at 10 uM concentration, plate are incubated at room temperature in the dark for 90 minutes. Reaction are stopped by vacuum filtration onto 0.3% polyethyleneimine soaked filter mats using Filtermate harvester. Scintillation cocktail is then melted onto microwave-dried filters on a hot plate and the radio activity is counted in Microbia counter.
Sequence of 5-hydroxytryptamine receptor 6 (P50406 whole entry): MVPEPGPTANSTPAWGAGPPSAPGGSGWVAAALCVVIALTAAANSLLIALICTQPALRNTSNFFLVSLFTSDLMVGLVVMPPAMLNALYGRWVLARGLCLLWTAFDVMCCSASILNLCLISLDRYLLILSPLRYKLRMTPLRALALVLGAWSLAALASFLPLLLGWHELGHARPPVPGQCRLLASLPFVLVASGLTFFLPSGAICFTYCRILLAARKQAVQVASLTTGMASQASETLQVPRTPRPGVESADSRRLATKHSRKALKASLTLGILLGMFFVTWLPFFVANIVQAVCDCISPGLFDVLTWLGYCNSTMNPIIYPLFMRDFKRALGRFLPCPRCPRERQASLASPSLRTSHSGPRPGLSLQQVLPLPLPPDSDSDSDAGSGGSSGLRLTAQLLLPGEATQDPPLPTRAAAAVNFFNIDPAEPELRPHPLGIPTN

Assay [11] addresses 5-hydroxytryptamine receptor 1E (Homo sapiens, UniProt P28566). Briefly: PDSP Secondary Binding target: HTR1E - Compounds are tested at 10 uM concentration, plate are incubated at room temperature in the dark for 90 minutes. Reaction are stopped by vacuum filtration onto 0.3% polyethyleneimine soaked filter mats using Filtermate harvester. Scintillation cocktail is then melted onto microwave-dried filters on a hot plate and the radio activity is counted in Microbia counter.

A further assay deals with D(2) dopamine receptor (Homo sapiens, UniProt P14416). The assay can be described thus: PDSP Secondary Binding target: DRD2 - Compounds are tested at 10 uM concentration, plate are incubated at room temperature in the dark for 90 minutes. Reaction are stopped by vacuum filtration onto 0.3% polyethyleneimine soaked filter mats using Filtermate harvester. Scintillation cocktail is then melted onto microwave-dried filters on a hot plate and the radio activity is counted in Microbia counter.

The target of another assay is T2, D(4) dopamine receptor (Homo sapiens, UniProt P21917).
T2 sequence (P21917 whole entry): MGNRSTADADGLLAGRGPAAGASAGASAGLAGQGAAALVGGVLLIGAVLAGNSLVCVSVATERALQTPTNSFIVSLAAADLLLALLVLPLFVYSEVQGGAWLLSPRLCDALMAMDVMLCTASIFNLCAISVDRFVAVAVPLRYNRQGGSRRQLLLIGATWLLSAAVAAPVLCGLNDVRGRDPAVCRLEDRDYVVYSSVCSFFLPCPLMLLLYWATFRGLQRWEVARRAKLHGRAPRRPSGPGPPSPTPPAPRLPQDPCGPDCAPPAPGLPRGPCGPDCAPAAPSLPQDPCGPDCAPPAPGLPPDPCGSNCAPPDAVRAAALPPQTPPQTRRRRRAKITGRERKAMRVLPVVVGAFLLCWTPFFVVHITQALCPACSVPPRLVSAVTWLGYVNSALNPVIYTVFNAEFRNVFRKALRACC
The assay can be described thus: PDSP Secondary Binding target: DRD4 - Compounds are tested at 10 uM concentration, plate are incubated at room temperature in the dark for 90 minutes. Reaction are stopped by vacuum filtration onto 0.3% polyethyleneimine soaked filter mats using Filtermate harvester. Scintillation cocktail is then melted onto microwave-dried filters on a hot plate and the radio activity is counted in Microbia counter.

Assay [12] concerns the target T3, 5-hydroxytryptamine receptor 2C (Homo sapiens, UniProt P28335).
T3 sequence (P28335 whole entry): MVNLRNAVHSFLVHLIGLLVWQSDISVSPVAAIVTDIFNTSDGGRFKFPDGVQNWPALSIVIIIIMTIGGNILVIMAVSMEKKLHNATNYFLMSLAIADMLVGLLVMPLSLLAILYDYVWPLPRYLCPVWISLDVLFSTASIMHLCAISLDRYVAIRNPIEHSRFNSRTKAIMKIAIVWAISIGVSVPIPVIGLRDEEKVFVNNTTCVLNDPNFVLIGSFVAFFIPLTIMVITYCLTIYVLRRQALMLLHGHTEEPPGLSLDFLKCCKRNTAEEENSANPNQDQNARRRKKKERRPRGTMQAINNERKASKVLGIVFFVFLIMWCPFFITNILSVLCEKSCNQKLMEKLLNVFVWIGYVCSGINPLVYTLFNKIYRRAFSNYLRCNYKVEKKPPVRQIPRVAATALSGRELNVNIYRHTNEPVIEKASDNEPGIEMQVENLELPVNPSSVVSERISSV
Briefly: PDSP Secondary Binding target: HTR2C - Compounds are tested at 10 uM concentration, plate are incubated at room temperature in the dark for 90 minutes. Reaction are stopped by vacuum filtration onto 0.3% polyethyleneimine soaked filter mats using Filtermate harvester. Scintillation cocktail is then melted onto microwave-dried filters on a hot plate and the radio activity is counted in Microbia counter.

The target in assay [13] is Sodium-dependent serotonin transporter (Homo sapiens, UniProt P31645). Briefly: PDSP Secondary Binding target: SLC6A4 - Compounds are tested at 10 uM concentration, plate are incubated at room temperature in the dark for 90 minutes. Reaction are stopped by vacuum filtration onto 0.3% polyethyleneimine soaked filter mats using Filtermate harvester. Scintillation cocktail is then melted onto microwave-dried filters on a hot plate and the radio activity is counted in Microbia counter.
Sequence of Sodium-dependent serotonin transporter (P31645 whole entry): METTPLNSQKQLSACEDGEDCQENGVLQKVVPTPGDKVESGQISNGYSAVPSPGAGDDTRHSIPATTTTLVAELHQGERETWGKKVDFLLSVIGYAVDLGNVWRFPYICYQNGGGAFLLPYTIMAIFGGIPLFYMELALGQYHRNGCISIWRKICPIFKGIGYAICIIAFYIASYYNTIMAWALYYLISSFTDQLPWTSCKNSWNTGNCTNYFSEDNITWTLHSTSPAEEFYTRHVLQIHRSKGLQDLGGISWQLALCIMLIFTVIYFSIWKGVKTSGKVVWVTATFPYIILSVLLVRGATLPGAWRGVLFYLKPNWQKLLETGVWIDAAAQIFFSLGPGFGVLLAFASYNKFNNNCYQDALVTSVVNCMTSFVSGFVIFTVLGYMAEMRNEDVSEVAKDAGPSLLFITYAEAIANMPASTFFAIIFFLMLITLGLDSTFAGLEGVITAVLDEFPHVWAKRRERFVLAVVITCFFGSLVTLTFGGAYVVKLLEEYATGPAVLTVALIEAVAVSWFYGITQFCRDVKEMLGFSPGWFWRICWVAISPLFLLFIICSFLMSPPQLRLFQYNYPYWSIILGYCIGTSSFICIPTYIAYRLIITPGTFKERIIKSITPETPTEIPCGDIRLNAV

The target in assay [14] is Sigma non-opioid intracellular receptor 1 (Homo sapiens, UniProt Q99720). Briefly: PDSP Secondary Binding target: SIGMAR1 - Compounds are tested at 10 uM concentration, plate are incubated at room temperature in the dark for 90 minutes. Reaction are stopped by vacuum filtration onto 0.3% polyethyleneimine soaked filter mats using Filtermate harvester. Scintillation cocktail is then melted onto microwave-dried filters on a hot plate and the radio activity is counted in Microbia counter.

The target in assay [15] is 5-hydroxytryptamine receptor 2A (Homo sapiens, UniProt P28223). Briefly: PDSP Secondary Binding target: HTR2A - Compounds are tested at 10 uM concentration, plate are incubated at room temperature in the dark for 90 minutes. Reaction are stopped by vacuum filtration onto 0.3% polyethyleneimine soaked filter mats using Filtermate harvester. Scintillation cocktail is then melted onto microwave-dried filters on a hot plate and the radio activity is counted in Microbia counter.

For assay [16], the target named is 5-hydroxytryptamine receptor 7 (Homo sapiens, UniProt P34969). Briefly: PDSP Secondary Binding target: HTR7 - Compounds are tested at 10 uM concentration, plate are incubated at room temperature in the dark for 90 minutes. Reaction are stopped by vacuum filtration onto 0.3% polyethyleneimine soaked filter mats using Filtermate harvester. Scintillation cocktail is then melted onto microwave-dried filters on a hot plate and the radio activity is counted in Microbia counter.
Sequence of 5-hydroxytryptamine receptor 7 (P34969 whole entry): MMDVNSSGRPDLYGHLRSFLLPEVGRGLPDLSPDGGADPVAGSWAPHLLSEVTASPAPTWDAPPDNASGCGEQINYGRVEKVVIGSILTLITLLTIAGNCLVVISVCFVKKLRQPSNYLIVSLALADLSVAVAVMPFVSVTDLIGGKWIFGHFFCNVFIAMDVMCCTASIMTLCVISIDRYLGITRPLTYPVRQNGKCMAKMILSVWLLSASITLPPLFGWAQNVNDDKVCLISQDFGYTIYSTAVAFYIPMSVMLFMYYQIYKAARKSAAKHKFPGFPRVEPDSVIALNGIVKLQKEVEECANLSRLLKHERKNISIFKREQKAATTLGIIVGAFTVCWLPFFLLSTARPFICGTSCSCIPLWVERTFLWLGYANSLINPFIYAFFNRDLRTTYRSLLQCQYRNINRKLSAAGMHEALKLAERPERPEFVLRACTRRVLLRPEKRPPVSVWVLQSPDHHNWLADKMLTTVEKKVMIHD

Sequence of Sigma intracellular receptor 2 (Q5BJF2 whole entry): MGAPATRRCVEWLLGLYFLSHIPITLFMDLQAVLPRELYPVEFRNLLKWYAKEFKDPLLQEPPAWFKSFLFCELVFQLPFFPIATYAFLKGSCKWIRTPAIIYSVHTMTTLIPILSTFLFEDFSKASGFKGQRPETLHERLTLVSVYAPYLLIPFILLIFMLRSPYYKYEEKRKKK
Sequence of 5-hydroxytryptamine receptor 5A (P47898 whole entry): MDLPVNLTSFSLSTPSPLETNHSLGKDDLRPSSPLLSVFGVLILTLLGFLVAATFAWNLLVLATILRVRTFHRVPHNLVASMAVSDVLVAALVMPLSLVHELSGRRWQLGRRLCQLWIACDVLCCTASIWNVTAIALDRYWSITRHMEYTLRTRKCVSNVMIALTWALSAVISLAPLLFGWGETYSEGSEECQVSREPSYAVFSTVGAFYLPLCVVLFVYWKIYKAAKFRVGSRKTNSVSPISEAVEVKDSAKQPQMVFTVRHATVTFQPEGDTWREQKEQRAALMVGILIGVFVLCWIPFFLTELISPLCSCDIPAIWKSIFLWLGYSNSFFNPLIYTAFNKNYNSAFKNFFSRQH
Sequence of 5-hydroxytryptamine receptor 1E (P28566 whole entry): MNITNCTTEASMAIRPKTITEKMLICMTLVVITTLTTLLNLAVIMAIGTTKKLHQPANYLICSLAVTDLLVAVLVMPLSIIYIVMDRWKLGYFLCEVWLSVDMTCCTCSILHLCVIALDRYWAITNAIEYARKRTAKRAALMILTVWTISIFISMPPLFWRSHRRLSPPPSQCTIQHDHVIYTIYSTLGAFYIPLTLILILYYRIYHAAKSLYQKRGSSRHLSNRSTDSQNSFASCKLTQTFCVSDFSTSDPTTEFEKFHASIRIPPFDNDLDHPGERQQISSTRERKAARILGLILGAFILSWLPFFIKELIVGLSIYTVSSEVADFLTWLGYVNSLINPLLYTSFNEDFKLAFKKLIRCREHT
Sequence of Translocator protein (P30536 whole entry): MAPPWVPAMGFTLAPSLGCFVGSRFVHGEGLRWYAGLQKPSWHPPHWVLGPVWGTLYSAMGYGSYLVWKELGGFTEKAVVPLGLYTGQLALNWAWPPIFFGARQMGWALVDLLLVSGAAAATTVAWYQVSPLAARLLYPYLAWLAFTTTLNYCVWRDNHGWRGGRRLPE

As to `CS(=O)(=O)NC[C@H]1CC[C@H](Nc2nc3c(s2)CCSc2ccccc2-3)CC1`, the Ki is 7540 nM in assay [1]; 1040 nM in [2]; 400 nM in assay [3]; 1610 nM in assay [4]; 498 nM on D(3) dopamine receptor; 1720 nM in assay [5].

For the molecule `CN(C)S(=O)(=O)c1ccc(NC(=S)N2CCC(C(O)(c3ccccc3)c3ccccc3)CC2)cc1`, the Ki in assay [1] worked out at 5210 nM; at Translocator protein, 969 nM; in [5] it was 242 nM; in assay [6] it was 3500 nM.

With `NCCc1c[nH]c2ccc(C(N)=O)cc12`, the Ki in assay [7] is 2160 nM; in assay [2] it was 8.64 nM; in [8], 2650 nM; in [9], 11.2 nM; in [10], 325 nM; in assay [5], 4570 nM. Besides, the inhibition constant Ki in assay [11] is 949 nM; at D(2) dopamine receptor it was greater than 10000 nM.

For the molecule `N#Cc1c[nH]c2c(C(=O)N3CCN(CCc4ccc(F)cc4)CC3)cccc12` [PRUVANSERIN], the inhibition constant (Ki) at D(4) dopamine receptor is 181 nM; in assay [1], greater than 10000 nM; in [3], 1040 nM; in assay [4] it was 588 nM; in assay [8] it was 2520 nM; in [12] it was 1470 nM. Besides, the Ki in [13] is 1100 nM; in assay [14], 178 nM; in assay [5] it was 1180 nM; in assay [15], 2.64 nM; in [16], 2390 nM.

The values above are taken from ChEMBL document CHEMBL5442175, “EUbOPEN Chemogenomics Library - PDSP Secondary Binding” (2024).
